According to ChEMBL document CHEMBL5257070, “The Asymmetric Total Synthesis and Configuration Confirmation of Aplysiaenal and Nhatrangin A, Truncated Derivatives of Aplysiatoxin and Oscillatoxin” (J Nat Prod, 2023):
pIC50: −log10 of the molar value.

Key:
L1210 = assay: Cytotoxicity against mouse L1210 cells incubated for 72 hrs by WST-8 method; format: functional, cell-based; settings: L1210, 72 h
HCT-116 = assay: Cytotoxicity against human HCT-116 cells incubated for 72 hrs by MTT assay; format: functional, cell-based; settings: HCT-116, 72 h

Row | Structure (SMILES) | pIC50 (L1210) | pIC50 (HCT-116)
1 | CO[C@@H](CC[C@H](C)/C=C(\C)C=O)c1cccc(O)c1 | 4.03 | < 4.00
2 | CO[C@@H](CC[C@H](C)[C@H]1O[C@@]2(C=C[C@@H]1C)[C@H](C(=O)O[C@H]1COC(=O)C1)C(=O)[C@H](C)CC2(C)C)c1cccc(O)c1 | 4.32 | –
3 | CO[C@@H](CC[C@H](C)[C@@H](OC(=O)C[C@@H](O)[C@@H](C)O)[C@@H](C)C(=O)O)c1cccc(O)c1 | < 4.00 | < 4.00
